Results taken from ChEMBL document CHEMBL1201862, “PubChem BioAssay data set” (2004).
Calls of active or inactive are those of the source. For most assays here, no stated cut-off is given here; in the data, actives have a measured IC50 and inactives only a lower limit.

What was measured:
[1] = biological target: DNA dC->dU-editing enzyme APOBEC-3A (Homo sapiens, UniProt P31941); test: APOBEC3A DNA deaminase inhibitors, dose response, biochemical (AID 504722); format: functional
[2] = biological target: DNA dC->dU-editing enzyme APOBEC-3G (Homo sapiens, UniProt Q9HC16); test: Dose Response confirmation of small molecule APOBEC3G DNA Deaminase Inhibitors via a fluorescence-based single-stranded DNA deaminase assay. [Related pubchem assays (depositor defined):AID493012, AID493028]; format: functional
Chain of DNA dC->dU-editing enzyme APOBEC-3G (Q9HC16 whole entry): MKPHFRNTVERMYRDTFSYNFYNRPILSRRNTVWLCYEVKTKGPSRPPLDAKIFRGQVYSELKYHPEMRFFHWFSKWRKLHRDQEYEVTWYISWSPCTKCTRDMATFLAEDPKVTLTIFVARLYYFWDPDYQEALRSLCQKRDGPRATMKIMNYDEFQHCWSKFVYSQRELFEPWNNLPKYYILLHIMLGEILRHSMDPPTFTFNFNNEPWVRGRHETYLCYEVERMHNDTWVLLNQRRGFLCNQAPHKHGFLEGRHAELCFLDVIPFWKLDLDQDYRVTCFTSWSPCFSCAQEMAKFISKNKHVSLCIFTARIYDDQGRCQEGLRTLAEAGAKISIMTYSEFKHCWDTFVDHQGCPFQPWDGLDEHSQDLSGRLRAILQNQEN

[3] = biological target: T1, Dual specificity protein phosphatase 3 (Homo sapiens, UniProt P51452); test: SAR VHR1 absorbance Assay for In Vitro dose response studies. [Related pubchem assays (depositor defined):AID1654, AID1661, AID1878, AID1992, AID2004]
T1 sequence (P51452 whole entry): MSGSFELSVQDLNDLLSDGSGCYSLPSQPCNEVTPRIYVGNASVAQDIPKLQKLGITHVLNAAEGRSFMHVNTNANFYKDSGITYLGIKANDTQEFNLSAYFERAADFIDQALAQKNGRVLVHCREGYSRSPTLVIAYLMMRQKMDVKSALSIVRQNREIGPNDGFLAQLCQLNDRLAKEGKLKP

[4] = biological target: T1, Dual specificity protein phosphatase 3; test: SAR VHR1 Fluorescent Assay for In Vitro dose response studies. [Related pubchem assays (depositor defined):AID1654, AID1661, AID1878, AID1992, AID2004, AID2070, AID2085]; format: functional
[5] = biological target: T2, Tyrosine-protein phosphatase non-receptor type 7 (Homo sapiens, UniProt P35236); test: redox-dependent HePTP inhibition, mechanism study, biochemical, fluorescence (AID 2068); format: functional
T2 sequence (P35236 whole entry): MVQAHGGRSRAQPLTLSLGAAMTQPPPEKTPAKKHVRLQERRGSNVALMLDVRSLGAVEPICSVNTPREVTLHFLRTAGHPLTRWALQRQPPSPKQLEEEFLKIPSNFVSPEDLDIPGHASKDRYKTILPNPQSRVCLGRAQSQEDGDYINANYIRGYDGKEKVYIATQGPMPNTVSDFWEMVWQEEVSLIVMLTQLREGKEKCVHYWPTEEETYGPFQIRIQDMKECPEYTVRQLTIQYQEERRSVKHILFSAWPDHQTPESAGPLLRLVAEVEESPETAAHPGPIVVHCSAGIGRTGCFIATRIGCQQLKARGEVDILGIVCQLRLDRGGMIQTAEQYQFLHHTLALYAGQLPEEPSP

[6] = biological target: T3, Dual specificity protein phosphatase 6 (Rattus norvegicus, UniProt Q64346); format: functional;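 further: confirmatory in vitro dose-response testing of MKP-3 inhibition; recombinant His-tagged MKP-3 made in E. coli BL21 with OMFP substrate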
T3 sequence (Q64346 whole entry): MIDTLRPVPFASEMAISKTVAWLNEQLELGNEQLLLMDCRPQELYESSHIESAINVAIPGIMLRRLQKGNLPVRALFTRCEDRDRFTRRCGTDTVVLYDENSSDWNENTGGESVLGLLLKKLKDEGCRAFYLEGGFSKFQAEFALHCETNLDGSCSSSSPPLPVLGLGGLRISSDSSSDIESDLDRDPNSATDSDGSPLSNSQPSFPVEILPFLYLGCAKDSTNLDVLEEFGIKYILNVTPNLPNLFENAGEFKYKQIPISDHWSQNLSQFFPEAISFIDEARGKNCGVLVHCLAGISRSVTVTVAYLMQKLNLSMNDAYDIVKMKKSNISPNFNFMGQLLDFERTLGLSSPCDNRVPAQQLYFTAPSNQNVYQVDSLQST

[7] = biological target: T4, Short transient receptor potential channel 4 (Mus musculus, UniProt Q9QUQ5); test: TRPC4 positive allosteric modulators, dose response, cell-based, HEK293 TRPC4/mu-opioid, Fluo-4 calcium, EC20 DAMGO (AID 434941); format: functional
T4 sequence (Q9QUQ5 whole entry): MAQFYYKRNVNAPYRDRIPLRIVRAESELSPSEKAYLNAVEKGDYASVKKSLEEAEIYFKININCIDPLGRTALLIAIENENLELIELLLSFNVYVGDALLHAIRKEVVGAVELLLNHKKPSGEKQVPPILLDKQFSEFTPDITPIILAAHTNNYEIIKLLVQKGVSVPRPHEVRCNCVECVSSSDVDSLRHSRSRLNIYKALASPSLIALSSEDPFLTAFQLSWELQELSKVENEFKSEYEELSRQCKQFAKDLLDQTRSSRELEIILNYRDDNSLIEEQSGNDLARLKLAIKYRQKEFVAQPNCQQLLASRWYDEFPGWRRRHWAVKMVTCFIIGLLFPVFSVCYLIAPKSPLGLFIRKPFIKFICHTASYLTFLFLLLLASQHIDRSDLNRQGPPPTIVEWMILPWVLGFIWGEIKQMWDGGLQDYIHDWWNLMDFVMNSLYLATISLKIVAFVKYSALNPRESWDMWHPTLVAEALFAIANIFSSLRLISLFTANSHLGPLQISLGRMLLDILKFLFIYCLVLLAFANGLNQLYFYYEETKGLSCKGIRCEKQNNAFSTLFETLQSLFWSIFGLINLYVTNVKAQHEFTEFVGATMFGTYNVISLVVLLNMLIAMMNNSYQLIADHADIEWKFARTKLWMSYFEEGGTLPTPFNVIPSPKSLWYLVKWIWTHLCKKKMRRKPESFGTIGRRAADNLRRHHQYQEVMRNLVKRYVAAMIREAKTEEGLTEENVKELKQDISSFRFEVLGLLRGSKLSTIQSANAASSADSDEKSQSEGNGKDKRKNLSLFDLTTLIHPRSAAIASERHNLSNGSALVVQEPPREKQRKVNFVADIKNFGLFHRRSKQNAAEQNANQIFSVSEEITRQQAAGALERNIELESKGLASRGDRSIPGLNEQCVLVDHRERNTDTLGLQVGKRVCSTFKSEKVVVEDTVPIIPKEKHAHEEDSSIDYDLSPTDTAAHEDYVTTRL

[8] = biological target: T5, Sphingosine 1-phosphate receptor 4 (Homo sapiens, UniProt O95977); test: S1P4 receptor agonists, human, late-stage follow-up, cell-based, fluorescence, synthesized compounds (AID 463107); format: functional
T5 sequence (O95977 whole entry): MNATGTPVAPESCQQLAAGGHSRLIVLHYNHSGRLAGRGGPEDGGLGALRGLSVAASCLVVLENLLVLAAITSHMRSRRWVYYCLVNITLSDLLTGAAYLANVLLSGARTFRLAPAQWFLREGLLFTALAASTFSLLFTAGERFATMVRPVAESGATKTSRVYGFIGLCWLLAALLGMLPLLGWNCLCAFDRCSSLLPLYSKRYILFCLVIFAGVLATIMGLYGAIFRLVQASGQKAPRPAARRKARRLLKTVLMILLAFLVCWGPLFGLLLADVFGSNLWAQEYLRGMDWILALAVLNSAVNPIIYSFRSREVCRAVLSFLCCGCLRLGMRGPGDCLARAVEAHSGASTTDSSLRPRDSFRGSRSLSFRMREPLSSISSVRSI

Chain of DNA dC->dU-editing enzyme APOBEC-3A (P31941 whole entry): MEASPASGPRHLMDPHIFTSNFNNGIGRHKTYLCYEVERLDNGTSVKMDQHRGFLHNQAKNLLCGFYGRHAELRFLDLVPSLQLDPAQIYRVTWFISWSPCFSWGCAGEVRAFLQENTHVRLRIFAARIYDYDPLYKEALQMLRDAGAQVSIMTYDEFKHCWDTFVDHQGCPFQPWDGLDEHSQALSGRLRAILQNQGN

## Cc1ccc(-c2nnc(S)n2/N=C\c2ccco2)cc1
[1]
  IC50: > 100 µM (inactive)
[2]
  IC50: 2.86 µM (active)

## S=C(c1cn(CCOc2ccccc2)c2ccccc12)N1CCCCC1
[3]
  IC50: > 100 µM (inactive)
[4]
  IC50: > 100 µM (inactive)
[5]
  IC50: 31.7 µM (active)
[6]
  IC50: > 100 µM (inactive)

## CC1Cc2ccccc2N1C(=O)CSc1nc2c(c(=O)n(C)c(=O)n2C)n1Cc1ccc(F)cc1 (stereo not drawn)
[7]
  EC50: 1.33 µM (active)

## Cc1ccc(OCCOc2ccccc2)c([N+](=O)[O-])n1
[8]
  EC50: > 50 µM (inactive)
